From patent publication US11931343B2 (ARCUS BIOSCIENCES, INC., priority 2018, dated 2024) come the findings set out here.

The test addresses T1, human CD73 (Homo sapiens, UniProt P21589).
T1 sequence (P21589 27-549): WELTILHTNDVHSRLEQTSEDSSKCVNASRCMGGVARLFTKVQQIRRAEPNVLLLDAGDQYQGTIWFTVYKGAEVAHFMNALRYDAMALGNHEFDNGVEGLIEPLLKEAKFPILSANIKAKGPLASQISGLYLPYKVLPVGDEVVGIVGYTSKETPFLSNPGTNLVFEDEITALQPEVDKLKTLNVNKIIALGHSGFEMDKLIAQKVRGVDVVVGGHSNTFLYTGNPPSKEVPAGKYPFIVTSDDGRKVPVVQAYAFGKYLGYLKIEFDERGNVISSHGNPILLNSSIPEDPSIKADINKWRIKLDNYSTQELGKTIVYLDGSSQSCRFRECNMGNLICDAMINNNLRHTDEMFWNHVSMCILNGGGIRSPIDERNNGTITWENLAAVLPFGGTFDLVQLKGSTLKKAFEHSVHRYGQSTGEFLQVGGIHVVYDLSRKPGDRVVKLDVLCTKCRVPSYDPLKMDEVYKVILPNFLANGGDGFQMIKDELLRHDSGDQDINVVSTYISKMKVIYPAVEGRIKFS
In words: Inhibition of Ecto-5′-nucleotidase (CD73) activity in CHO-CD73 cells, phosphate release from AMP. The class given is cell-based. To be noted: CHO-K1 cells stably transfected with human CD73; 25 μM AMP; 50 minutes, 37° C.; read-out: Potency: CD73 IC50.
As usually defined, the IC50 is the point on the concentration scale where inhibition reaches its midpoint. As to `CC(Cn1nccc1-c1cc(F)c2nnn(-c3ccc4cn[nH]c4c3)c2c1)c1ccccc1` (stereo not shown) [Example 385], the IC50 was greater than 1000 nM.

Consider `Cc1nn(-c2ccc3cn[nH]c3c2)c2cc(-c3ccnn3Cc3ccc(Cl)cc3)cnc12` [Example 386], for which the IC50 was in the range of 100 to 1000 nM.

Take `CC(c1ccc(Cl)c[n+]1[O-])n1c(-c2cc3c(cc2F)nnn3-c2ccc3cn[nH]c3c2)cc[n+]1[O-]` (stereo not shown) [Example 387]: the IC50 was 100 to 1000 nM.

As to `Cc1ccc(F)c(-n2nccc2-c2cc(F)c3nnn(-c4ccc5cn[nH]c5c4)c3c2)c1` [Example 388], the 50% inhibitory concentration (IC50) is greater than 1000 nM.

With `N#Cc1ccc(Cn2nccc2-c2cc(F)c3c(N)nn(-c4ccc5cn[nH]c5c4)c3c2)cc1` [Example 389], the IC50 lay within 100 to 1000 nM.

Consider `Cc1ccc(C(C)n2nccc2-c2cc(Cl)c3nnn(-c4ccc5cn[nH]c5c4)c3c2)[n+]([O-])c1` (stereo not shown) [Example 390], for which the IC50 was in the range of 100 to 1000 nM.

As for `N#Cc1ccc(Cn2nccc2-c2cc3c(c[n+]2[O-])nnn3-c2ccc3[nH]c(=O)[nH]c3c2)cc1` [Example 391], the IC50 is greater than 1000 nM.

With `Cc1ccc(Cn2nccc2-c2cc3c(cc2F)nnn3-c2ccc3cn[nH]c3c2)nc1` [Example 392], the IC50 is less than 100 nM.

As for `Cc1cccc(-n2nccc2-c2cc3c(cc2F)nnn3-c2ccc3cn[nH]c3c2)c1` [Example 393], the IC50 lay within 100 to 1000 nM.

In the case of `Fc1cc(-c2ccnn2-c2ccc3[nH]ncc3c2)cc2c1nnn2-c1ccc2cn[nH]c2c1` [Example 394], the IC50 was greater than 1000 nM.

For the compound `Cc1ccc(C(C)n2nccc2-c2cc(F)c3nnn(-c4ccc5cn[nH]c5c4)c3c2)nc1` (stereo not shown) [Example 396], the IC50 lay in the range of 100 to 1000 nM.

`Cc1ccc(Cn2nccc2-c2cc3c(cc2F)nnn3-c2ccc3cn[nH]c3c2)[n+]([O-])c1` [Example 397]: the IC50 was 100 to 1000 nM.

Turning to `Cc1cc2nnn(-c3ccc4cn[nH]c4c3)c2cc1-c1ccnn1C(C)c1ccc(C#N)cc1` (stereo not shown) [Example 398], the IC50 is greater than 1000 nM.

On to `Cc1cc2nnn(-c3ccc4cn[nH]c4c3)c2cc1-c1ccnn1C(C)c1ccc(Cl)cn1` (stereo not shown) [Example 399], for which the IC50 was greater than 1000 nM.

For `N#Cc1ccc(Cn2nccc2-c2cc3c(cc2Cl)nnn3-c2ccc3cn[nH]c3c2)c(F)c1` [Example 400], the IC50 is less than 100 nM.

`CC(c1ccc(C#N)cc1)n1nccc1-c1cc2c(cc1Cl)nnn2-c1ccc2cn[nH]c2c1` (stereo not shown) [Example 401]: the half-maximal inhibitory concentration (IC50) was 100 to 1000 nM.

On to `CC(c1ccc(Cl)cn1)n1nccc1-c1cc2c(cc1Cl)nnn2-c1ccc2cn[nH]c2c1` (stereo not shown) [Example 402], for which the half-maximal inhibitory concentration (IC50) was 100 to 1000 nM.

Consider `N#Cc1cccc(-n2nccc2-c2cc3c(cc2Cl)nnn3-c2ccc3cn[nH]c3c2)c1` [Example 403], for which the IC50 was greater than 1000 nM.

For `Clc1cccc(-n2nccc2-c2cc3c(cc2Cl)nnn3-c2ccc3cn[nH]c3c2)c1` [Example 404], the IC50 is 100 to 1000 nM.

For `Cc1nn(-c2ccc3cn[nH]c3c2)c2cc(-c3ccnn3Cc3ccc(C#N)cc3)ncc12` [Example 405], the IC50 lay within 100 to 1000 nM.

On to `Cc1cccc(-n2nccc2-c2cc3c(cc2C)nnn3-c2ccc3cn[nH]c3c2)c1` [Example 406], for which the IC50 is greater than 1000 nM.

On to `Cc1cccc(-n2nccc2-c2cnc3c(C)nn(-c4ccc5cn[nH]c5c4)c3c2)c1` [Example 408], for which the IC50 is 100 to 1000 nM.

As for `Cc1ccc(F)c(-n2nccc2-c2cc3c(cn2)nnn3-c2ccc3cn[nH]c3c2)c1` [Example 409], the IC50 is greater than 1000 nM.

Turning to `N#Cc1ccc(Cn2nccc2-c2cc(F)c3nnn(-c4ccc5cn[nH]c5c4F)c3c2)cc1` [Example 410], the half-inhibitory concentration (IC50) lay in the range of 100 to 1000 nM.

With `Cc1cccc(-n2nccc2-c2cc3c(cc2Cl)nnn3-c2ccc3cn[nH]c3c2)c1` [Example 411], the half-maximal inhibitory concentration (IC50) was in the range of 100 to 1000 nM.

Turning to `CC(c1ccc(C#N)cc1F)n1nccc1-c1cc2c(cc1F)nnn2-c1ccc2cn[nH]c2c1` (stereo not shown) [Example 412], the IC50 is 100 to 1000 nM.

Consider `Cc1cccc(-n2ncc(Cl)c2-c2cc(F)c3nnn(-c4ccc5cn[nH]c5c4)c3c2)c1` [Example 413], for which the IC50 was 100 to 1000 nM.

On to `Cc1cccc(-n2ncc(C)c2-c2cc(F)c3nnn(-c4ccc5cn[nH]c5c4)c3c2)c1` [Example 416], for which the IC50 is greater than 1000 nM.

On to `C=CCNc1nn(-c2ccc3cn[nH]c3c2)c2cc(-c3ccnn3Cc3ccc(C#N)cc3)cnc12` [Example 417], for which the IC50 is greater than 1000 nM.

Turning to `CC(c1ccc(C#N)cc1F)n1nccc1-c1cc(Cl)c2nnn(-c3ccc4[nH]c(=O)[nH]c4c3)c2c1` (stereo not shown) [Example 418], the IC50 lay within 100 to 1000 nM.

Take `N#Cc1ccc(C(CO)n2nccc2-c2cc(F)c3nnn(-c4ccc5cn[nH]c5c4)c3c2)cc1` (stereo not shown) [Example 419]: the concentration for half-maximal inhibition (IC50) was 100 to 1000 nM.

Take `N#Cc1ccc(Cn2nccc2-c2cnc3c(NCCO)nn(-c4ccc5cn[nH]c5c4)c3c2)cc1` [Example 420]: the IC50 is greater than 1000 nM.

Take `N#Cc1ccc(Cn2nccc2-c2cc3c(cc2CO)nnn3-c2ccc3cn[nH]c3c2)cc1` [Example 421]: the IC50 fell in the range of 100 to 1000 nM.

Regarding `N#Cc1ccc(Cn2nccc2-c2cnc3c(NCC(O)CO)nn(-c4ccc5cn[nH]c5c4)c3c2)cc1` (stereo not shown) [Example 422], the IC50 is greater than 1000 nM.

For `CNc1nn(-c2ccc3cn[nH]c3c2)c2cc(-c3ccnn3Cc3ccc(C#N)cc3)cnc12` [Example 423], the IC50 is greater than 1000 nM.

In the case of `CN(C)S(=O)(=O)Nc1nn(-c2ccc3cn[nH]c3c2)c2cc(-c3ccnn3Cc3ccc(C#N)cc3)cnc12` [Example 424], the concentration for half-maximal inhibition (IC50) was greater than 1000 nM.

Regarding `CCNc1nn(-c2ccc3cn[nH]c3c2)c2cc(-c3ccnn3Cc3ccc(C#N)cc3)cnc12` [Example 425], the concentration for half-maximal inhibition (IC50) is greater than 1000 nM.
